# Molecular target: T1, sodium-proton exchanger of subtype 3 (NHE3) (Homo sapiens, UniProt P48764)
# T1 construct: expressed in transfected cells
# T1 sequence (P48764 26-834): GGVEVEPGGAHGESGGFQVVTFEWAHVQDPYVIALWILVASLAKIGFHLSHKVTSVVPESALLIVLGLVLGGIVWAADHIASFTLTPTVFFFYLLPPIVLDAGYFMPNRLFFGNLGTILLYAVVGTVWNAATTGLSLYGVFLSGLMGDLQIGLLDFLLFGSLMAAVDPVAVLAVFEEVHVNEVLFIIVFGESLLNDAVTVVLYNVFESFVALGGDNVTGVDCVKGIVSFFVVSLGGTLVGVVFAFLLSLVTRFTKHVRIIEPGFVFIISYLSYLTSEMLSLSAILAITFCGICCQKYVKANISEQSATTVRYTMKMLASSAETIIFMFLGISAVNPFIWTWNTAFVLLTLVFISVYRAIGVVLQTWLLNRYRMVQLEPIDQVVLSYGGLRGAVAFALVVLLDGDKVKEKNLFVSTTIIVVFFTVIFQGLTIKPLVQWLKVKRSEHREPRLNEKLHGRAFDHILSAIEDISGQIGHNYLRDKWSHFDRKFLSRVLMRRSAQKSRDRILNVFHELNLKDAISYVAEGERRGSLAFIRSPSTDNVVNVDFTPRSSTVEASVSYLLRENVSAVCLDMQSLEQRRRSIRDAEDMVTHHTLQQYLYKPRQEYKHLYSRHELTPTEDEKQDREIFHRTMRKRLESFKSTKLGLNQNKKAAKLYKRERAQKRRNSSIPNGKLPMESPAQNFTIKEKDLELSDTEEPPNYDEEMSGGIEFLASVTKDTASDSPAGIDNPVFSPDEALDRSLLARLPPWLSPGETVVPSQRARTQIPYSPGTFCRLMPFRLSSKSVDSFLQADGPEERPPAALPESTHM
# Test: Recovery of intracellular pH (pHi) after acidification in LAP1 cells stably expressing NHE3 (BCECF fluorescence, FLIPR)
# Assay type: cell-based
# Details: LAP1 cells stably expressing NHE3; pH recovery after acidification; range 1 is % inhibition at 10 μM; read-out: Activity range (inhibitory effect on NHE3)
IC50,inhibition at 10 µM,Compound
1000 to 10000 nM,,"NC(=O)Nc1cccc(O[C@@H]2c3ccccc3C[C@H]2N2CCC(N)C2)c1 (mixture of isomers) [Example 234, {3-[rac-trans-(1,2)-2-(3-aminopyrrolidin-1-yl)indan-1-yloxy]phenyl}urea]"
1000 to 10000 nM,,"O=C1CNC(=O)N1c1ccc(Cl)c(O[C@H]2c3cc(Cl)cc(F)c3C[C@@H]2N2CC[C@@H](O)C2)c1 [Example 438, 3-{4-chloro-3-[(1S,2S)-6-chloro-4-fluoro-2-((R)-3-hydroxypyrrolidin-1-yl)indan-1-yloxy]phenyl}imidazolidine-2,4-dione]"
,20 to 50%,"N[C@@H]1CCCN([C@H]2CCc3ccccc3[C@@H]2Oc2cccc(F)c2)C1 (racemic) [Example 57, (R)-1-[rac-trans-(1,2)-1-(3-fluorophenoxy)-1,2,3,4-tetrahydronaphthalen-2-yl]piperidin-3-ylamine]"
,20 to 50%,"Cc1c(Cl)cccc1O[C@H]1c2ccccc2CC[C@@H]1N1CCC[C@H](N)C1 (racemic) [Example 160, (S)-1-[rac-trans-(1,2)-1-(3-chloro-2-methylphenoxy)-1,2,3,4-tetrahydronaphthalen-2-yl]piperidin-3-ylamine]"
,20 to 50%,"N[C@@H]1CCCN([C@H]2CCc3ccccc3[C@@H]2Oc2ccc(F)cc2-c2ccno2)C1 (racemic) [Example 68, (R)-1-[rac-trans-(1,2)-1-(4-fluoro-2-isoxazol-5-ylphenoxy)-1,2,3,4-tetrahydronaphthalen-2-yl]piperidin-3-ylamine]"
< 1000 nM,,"Cc1nnc(C)n1-c1ccc(O[C@H]2c3cc(F)cc(F)c3C[C@@H]2N2CC[C@@H](O)C2)c(Cl)c1 [Example 109, (R)-1-{(1S,2S)-1-[2-chloro-4-(3,5-dimethyl-[1,2,4]triazol-4-yl)phenoxy]-4,6-difluoroindan-2-yl}pyrrolidin-3-ol]"
1000 to 10000 nM,,"N[C@@H]1CCCN([C@@H]2Cc3ccccc3[C@H]2Oc2ccc3ccncc3c2)C1 (racemic) [Example 85, (R)-1-[rac-trans-(1,2)-1-(isoquinolin-7-yloxy)indan-2-yl]piperidin-3-ylamine]"
,20 to 50%,"Cc1cc(O[C@H]2c3cc(F)cc(Cl)c3C[C@@H]2N2CCCC2)ccc1S(C)(=O)=O (racemic) [Example 282, 1-[rac-trans-(1,2)-4-chloro-6-fluoro-1-(4-methanesulfonyl-3-methylphenoxy)indan-2-yl]pyrrolidine]"
1000 to 10000 nM,,"N[C@H]1CCCN([C@@H]2Cc3ccccc3[C@H]2Oc2cccc3ncccc23)C1 (racemic) [Example 194, (S)-1-[rac-trans-(1,2)-1-(quinolin-5-yloxy)indan-2-yl]piperidin-3-ylamine]"
< 1000 nM,,"CS(=O)(=O)c1ccc(O[C@@H]2c3cc(F)cc(Cl)c3C[C@H]2N2CCC[C@@H](N)C2)cc1 (racemic) [Example 91, (R)-1-[rac-trans-(1,2)-4-chloro-6-fluoro-1-(4-methanesulfonylphenoxy)indan-2-yl]piperidin-3-ylamine]"
< 1000 nM,,"CN1CCN(c2cccc(O[C@H]3c4cc(Cl)cc(Cl)c4C[C@@H]3N3CCNCC3)c2)C1=O (racemic) [Example 258, 1-[3-(rac-trans-(1,2)-4,6-dichloro-2-piperazin-1-ylindan-1-yloxy)phenyl]-3-methylimidazolidin-2-one]"
< 1000 nM,,"CC(=O)Nc1cccc(O[C@H]2c3ccccc3C[C@@H]2N2CCC[C@@H](N)C2)c1 [Example 691, N-{3-[trans-(1S,2S)-2-((R)-3-aminopiperidin-1-yl)indan-1-yloxy]phenyl}acetamide]"
< 1000 nM,,"Cc1cn(-c2ccc(O[C@H]3c4cc(Cl)cc(Cl)c4C[C@@H]3N3CC[C@@H](O)C3)c(F)c2)c(C)n1 [Example 727, (R)-1-{trans-(1S,2S)-4,6-Dichloro-1-[4-(2,4-dimethyl-imidazol-1-yl)-2-fluoro-phenoxy]-indan-2-yl}-pyrrolidin-3-ol]"
1000 to 10000 nM,,"NC(=O)c1ccc(O[C@@H]2c3ccccc3C[C@H]2N2CCC[C@@H](N)C2)cc1 (racemic) [Example 525, 4-[rac-trans-(1,2)-2-((R)-3-aminopiperidin-1-yl)indan-1-yloxy]benzamide]"
1000 to 10000 nM,,"NS(=O)(=O)c1ccc(O[C@H]2c3cc(Cl)cc(Cl)c3C[C@@H]2N2CCOCC2)c(Cl)c1Cl (racemic) [Example 358, 2,3-dichloro-4-(rac-trans-(1,2)-4,6-dichloro-2-morpholin-4-ylindan-1-yloxy)benzenesulfonamide]"
,20 to 50%,"COc1cccc(F)c1O[C@H]1c2ccccc2CC[C@@H]1N1CCC[C@@H](N)C1 (racemic) [Example 44, (R)-1-[rac-trans-(1,2)-1-(2-fluoro-6-methoxyphenoxy)-1,2,3,4-tetrahydronaphthalen-2-yl]piperidin-3-ylamine]"

IC50,inhibition at 10 µM,Compound
,20 to 50%,"COCCN(C)[C@H]1Cc2c(Cl)cc(Cl)cc2[C@@H]1Oc1ccc(S(C)(=O)=O)cc1 [Example 218, [trans-(1S,2S)-4,6-dichloro-1-(4-methanesulfonylphenoxy)indan-2-yl]-(2-methoxyethyl)-methylamine]"
1000 to 10000 nM,,"NC1CCN([C@@H]2Cc3ccccc3[C@H]2Oc2ccc3cc[nH]c3c2)C1 (mixture of isomers) [Example 262, 1-[rac-trans-(1,2)-1-(1H-indol-6-yloxy)indan-2-yl]pyrrolidin-3-ylamine]"
< 1000 nM,,"NS(=O)(=O)c1ccc(O[C@H]2c3ccccc3C[C@@H]2N2CCCCC2)cc1 (racemic) [Example 465, 4-(rac-trans-(1,2)-2-piperidin-1-ylindan-1-yloxy)benzenesulfonamide]"
,20 to 50%,"N#Cc1c(F)cccc1O[C@H]1c2ccccc2CC[C@@H]1N1CCC[C@H](N)C1 (racemic) [Example 372, 2-[rac-trans-(1,2)-2-((S)-3-aminopiperidin-1-yl)-1,2,3,4-tetrahydronaphthalen-1-yloxy]-6-fluorobenzonitrile]"
,20 to 50%,"NS(=O)(=O)c1ccc(O[C@H]2c3ccccc3C[C@@H]2CN2CCOCC2)c(F)c1 (racemic) [Example 449, 3-fluoro-4-(2-morpholin-4-ylmethylindan-1-yloxy)benzenesulfonamide]"
1000 to 10000 nM,,"N#Cc1ccc(O[C@@H]2c3ccccc3C[C@H]2N2CCC[C@@H](N)C2)cc1F (racemic) [Example 522, 4-[rac-trans-(1,2)-2-((R)-3-aminopiperidin-1-yl)indan-1-yloxy]-2-fluorobenzonitrile]"
< 1000 nM,,"O=C1COCC(=O)N1c1ccc(O[C@H]2c3cc(Cl)cc(Cl)c3C[C@@H]2N2CC[C@@H](O)C2)c(F)c1 [Example 560, 4-{4-[(1S,2S)-4,6-dichloro-2-((R)-3-hydroxypyrrolidin-1-yl)indan-1-yloxy]-3-fluorophenyl}morpholine-3,5-dione]"
1000 to 10000 nM,,"CS(=O)(=O)c1ccc(O[C@H]2c3cc(Cl)cc(F)c3C[C@@H]2N2CCCC2)cc1 (racemic) [Example 293, 1-[rac-trans-(1,2)-6-chloro-4-fluoro-1-(4-methanesulfonylphenoxy)indan-2-yl]pyrrolidine]"
1000 to 10000 nM,,"CC(=O)Nc1cccc(O[C@H]2c3ccccc3C[C@@H]2N2CC[C@@H](CO)C2)c1 (racemic) [Example 680, N-{3-[rac-trans-(1,2)-2-((R)-3-hydroxymethylpyrrolidin-1-yl)indan-1-yloxy]phenyl}acetamide]"
1000 to 10000 nM,,"COC[C@@H]1CCCN1[C@H]1Cc2c(Cl)cc(Cl)cc2[C@@H]1Oc1ccc(-n2c(C)nnc2C)cc1 [Example 562, 4-{4-[trans-(1S,2S)-4,6-dichloro-2-((S)-2-methoxymethylpyrrolidin-1-yl)indan-1-yloxy]phenyl}-3,5-dimethyl-4H-[1,2,4]triazole]"
1000 to 10000 nM,,"NCC1CCN([C@@H]2Cc3ccccc3[C@H]2Oc2ccc(C(N)=O)cc2)CC1 (racemic) [Example 548, 4-[rac-trans-(1,2)-2-(4-aminomethylpiperidin-1-yl)indan-1-yloxy]benzamide]"
1000 to 10000 nM,,"c1ccc2c(c1)C[C@@H](N1C[C@H]3CNC[C@H]3C1)[C@@H]2Oc1ccc(N2CCNCC2)cc1 (racemic) [Example 17, 2-[rac-trans-(1,2)-1-(4-piperazin-1-ylphenoxy)indan-2-yl]octahydropyrrolo[3,4-c]pyrrole]"
1000 to 10000 nM,,"Cc1cc(F)ccc1O[C@@H]1c2ccccc2C[C@H]1N1C[C@H]2CNC[C@H]2C1 (racemic) [Example 16, 2-[rac-trans-(1,2)-1-(4-fluoro-2-methylphenoxy)indan-2-yl]octahydropyrrolo[3,4-c]pyrrole]"
1000 to 10000 nM,,"COCCc1ccc(O[C@@H]2c3ccccc3C[C@H]2N2C[C@H]3CNC[C@H]3C2)cc1 (racemic) [Example 19, 2-{rac-trans-(1,2)-1-[4-(2-methoxyethyl)phenoxy]indan-2-yl}octahydropyrrolo[3,4-c]pyrrole]"
< 1000 nM,,"NC(=O)Nc1cccc(O[C@@H]2c3ccccc3C[C@H]2N2CCC[C@@H](N)C2)c1 (racemic) [Example 231, {3-[rac-trans-(1,2)-2-((R)-3-aminopiperidin-1-yl)indan-1-yloxy]phenyl}urea]"

# — patent US8822449B2, “Substituted aminoindanes and analogs thereof, and the pharmaceutical use thereof” (Sanofi, priority 2008, dated 2014)
